Laboratory results published in patent publication US11746113B2, “Labelled cannabinergic ligands and related analogs” (priority 2020, dated 2023).

How the values were obtained:
CB1/CB2 receptors = test: Tight/irreversible binding: reduction of [3H]CP-55,940 Bmax after ligand pretreatment; details: receptors preincubated with ligand at 10-fold its Ki; saturation binding with [3H]CP-55,940; FIG. 8C
Protocol: Some disclosed compounds were tested for CB1 and CB2 receptor binding affinity (Tables 1, 2 and 3). As used herein “binding affinity” is represented by the Ki value. The Ki value is the affinity constant and describes the affinity of the compound for the receptor. The lower the Ki value, the higher the affinity of the compound for the receptor. A detailed description of the methods used to test “binding affinity” of compounds is given in Makriyannis, et al., US 2007, 0135388 and in Papahatjis, et al. J. Med. Chem. (2007) 4048, the content of each of which is hereby incorporated by reference. Functional characterization of some of the disclosed compounds was performed by using the cyclic adenosine monophosphate (cAMP) assay. The functional potency of the compound is represented by the EC50 value. The lower the EC50 value, the higher the functional potency. A detailed description of the cyclic adenosine monophosphate (cAMP) assay is given in Nikas et al. J. Med. Chem. (2010) 6996. The ability of some of the ligands to bind to the CB1/CB2 receptors with a tight/irreversible binding mode was determined by measuring reductions in the binding for the radioligand [3H]CP-55,940 when the receptor preparation was pretreated with the tight/irreversible ligand, and comparing it to the untreated sample as disclosed in Ogava et al. J. Med. Chem. (2015) 58, 3104. Reductions in the specific binding (Bmax) of [^3H]CP-55,940 after ligand pretreatment indicate ability of the ligand to tight/irreversibly bind to the receptor. As detailed in Ogava et al. J Med. Chem. (2015) 58, 3104, the experiment was conducted by pretreating the sample with a concentration equal to 10-fold the compound's Ki value for the receptor in question and subsequently measuring the decrease of Bmax obtained from a saturation curve using [3H]CP-55,940.

[1] = Fluorescence properties (excitation/emission maxima); format: physicochemical

For CCCCCCC(C)(C)c1cc(OC(=O)C(C)(C)CCCNC(=O)c2cc3cc4c5c(c3oc2=O)CCCN5CCC4)c2c(c1)OC(C)(C)C1CCC(=O)C[C@@H]21 (stereo in doubt) [Compound 9.11, (6aS,10aR)-6,6-Dimethyl-3-(2-methyloctan-2-yl)-9-oxo-6a,7,8,9,10,10a-hexahydro-6H-benzo[c]chromen-1-yl 2,2-dimethyl-5-(11-oxo-2,3,6,7-tetrahydro-1H, 5H, 11H-pyrano[2,3-f]pyrido[3,2,1-ij]quinoline-10-carboxamido)pentanoate], the melting point was 130 to 131 °C.

For CCCCCCC(C)(C)c1cc(OC(=O)C(C)(C)CCCCNC(=O)c2cc3cc4c5c(c3oc2=O)CCCN5CCC4)c2c(c1)OC(C)(C)C1CCC(=O)C[C@@H]21 (stereo in doubt) [Compound 9.12, (6aS,10aR)-6,6-Dimethyl-3-(2-methyloctan-2-yl)-9-oxo-6a,7,8,9,10,10a-hexahydro-6H-benzo[c]chromen-1-yl 2,2-dimethyl-6-(11-oxo-2,3,6,7-tetrahydro-1H, 5H, 11H-pyrano[2,3-f]pyrido[3,2,1-ij]quinoline-10-carboxamido)hexanoate], the melting point was 133 to 134 °C.

In the case of CC(C)(CCCCCCCl)c1cc(O)c2c(c1)OC(C)(C)[C@@H]1CC[C@@H](Cn3cc(COC(=O)CCCC[C@@H]4SC[C@@H]5NC(=O)N[C@@H]54)nn3)C[C@@H]21 [Compound 3.1, (1-{[(6aR,9R,10aR)-3-(8-Chloro-2-methyloctan-2-yl)-1-hydroxy-6,6-dimethyl-6a,7,8,9,10,10a-hexahydro-6H-benzo [c]chromen-9-yl]methyl}-1H-1,2,3-triazol-4-yl)methyl 5-[(3aS,4S,6aR)-2-oxohexahydro-1H-thieno[3,4-d]imidazol-4-yl]pentanoate], the tight/irreversible binding mode (CB1/CB2 receptors) is reported as “tight/irreversible”.

With CC(C)(CCCCCCCl)c1cc(O)c2c(c1)OC(C)(C)[C@@H]1CC[C@@H](Cn3cc(COC(=O)CCCCCNC(=O)CCCC[C@@H]4SC[C@@H]5NC(=O)N[C@@H]54)nn3)C[C@@H]21 [Compound 3.2, (1-{[(6aR,9R,10aR)-3-(8-Chloro-2-methyloctan-2-yl)-1-hydroxy-6,6-dimethyl-6a,7,8,9,10,10a-hexahydro-6H-benzo [c]chromen-9-yl]methyl}-1H-1,2,3-triazol-4-yl)methyl 6-{5-[(3aS,4S,6aR)-2-oxohexahydro-1H-thieno[3,4-d]imidazol-4-yl]pentanamido}hexanoate] the tight/irreversible binding mode (CB1/CB2 receptors) was “tight/irreversible”.

In the case of CN(C)S(=O)(=O)c1ccc(NCc2cn(C[C@@H]3CC[C@@H]4[C@@H](C3)c3c(O)cc(C(C)(C)CCCCCCCl)cc3OC4(C)C)nn2)c2nonc12 [Compound 3.3, 7-(((1-(((6aR,9R,10aR)-3-(8-Chloro-2-methyloctan-2-yl)-1-hydroxy-6,6-dimethyl-6a,7,8,9,10,10a-hexahydro-6H-benzo [c]chromen-9-yl)methyl)-1H-1,2,3-triazol-4-yl)methyl)amino)-N,N-dimethylbenzo[c][1,2,5]oxadiazole-4-sulfonamide], the “Em λmax” value ([1]; Acetonitrile) is reported as 583, the “Ex λmax” value ([1]; Acetonitrile) is reported as 416 and the “Em λmax” value ([1]; Ethanol) is reported as 581. For the same compound, the “Ex λmax” value ([1]; Ethanol) was 415.

For CC(C)(CCCCCCCl)c1cc(O)c2c(c1)OC(C)(C)[C@@H]1CC[C@@H](Cn3cc(COCCCCNC(=O)c4cc5cc6c7c(c5oc4=O)CCCN7CCC6)nn3)C[C@@H]21 [Compound 3.4, N-{4-[(1-{[(6aR,9R,10aR)-3-(8-Chloro-2-methyloctan-2-yl)-1-hydroxy-6,6-dimethyl-6a,7,8,9,10,10a-hexahydro-6H-benzo[c]chromen-9-yl]methyl}-1H-1,2,3-triazol-4-yl)methoxy]butyl}-11-oxo-2,3,6,7-tetrahydro-1H, 5H, 11H-pyrano[2,3-f]pyrido[3,2,1-ij]quinoline-10-carboxamide], the “Em λmax” value ([1]; Acetonitrile) was 488, the “Ex λmax” value ([1]; Acetonitrile) was 437 and the “Em λmax” value ([1]; Ethanol) was 477. For the same compound, the “Ex λmax” value ([1]; Ethanol) was 436.

With CC(C)(CCCCCCCl)c1cc(O)c2c(c1)OC(C)(C)[C@@H]1CC[C@@H](Cn3cc(CNC(=O)c4cc5cc6c7c(c5oc4=O)CCCN7CCC6)nn3)C[C@@H]21 [Compound 3.13] the “Em λmax” value ([1]; Acetonitrile) was 488, the “Ex λmax” value ([1]; Acetonitrile) was 435 and the “Em λmax” value ([1]; Ethanol) was 478. For the same compound, the “Ex λmax” value ([1]; Ethanol) was 436.

With CC(C)(CCCCCCCl)c1cc(O)c2c(c1)OC(C)(C)[C@@H]1CC[C@@H](COC(=O)CCCC[C@@H]3SC[C@@H]4NC(=O)N[C@@H]43)C[C@@H]21 [Compound 4.2, [(6aR,9R,10aR)-3-(8-Chloro-2-methyloctan-2-yl)-1-hydroxy-6,6-dimethyl-6a,7,8,9,10,10a-hexahydro-6H-benzo[c]chromen-9-yl]methyl 5-[(3a,4S,6aR)-2-oxohexahydro-1H-thieno[3,4-d]imidazol-4-yl]pentanoate] the tight/irreversible binding mode (CB1/CB2 receptors) was “tight/irreversible”.

With CC(C)(CCCCCCCl)c1cc(O)c2c(c1)OC(C)(C)[C@@H]1CC[C@@H](COC(=O)CCCCCNC(=O)CCCC[C@@H]3SC[C@@H]4NC(=O)N[C@@H]43)C[C@@H]21 [Compound 4.4, [(6aR,9R,10aR)-3-(8-Chloro-2-methyloctan-2-yl)-1-hydroxy-6,6-dimethyl-6a,7,8,9,10,10a-hexahydro-6H-benzo[c]chromen-9-yl]methyl 6-{5-[(3aS,4S,6aR)-2-oxohexahydro-1H-thieno[3,4-d]imidazol-4-yl]pentanamido}hexanoate] the tight/irreversible binding mode (CB1/CB2 receptors) was “tight/irreversible”.

For CC(C)(CCCCCCO[N+](=O)[O-])c1cc(O)c2c(c1)OC(C)(C)[C@@H]1CC[C@@H](COC(=O)CCCC[C@@H]3SC[C@@H]4NC(=O)N[C@@H]43)C[C@@H]21 [Compound 4.7, {(6aR,9R,10aR)-1-Hydroxy-6,6-dimethyl-3-[2-methyl-8-(nitrooxy)octan-2-yl]-6a,7,8,9,10,10a-hexahydro-6H-benzo[c]chromen-9-yl}methyl 5-[(3aS,4S,6aR)-2-oxohexahydro-1H-thieno[3,4-d]imidazol-4-yl]pentanoate], the tight/irreversible binding mode (CB1/CB2 receptors) was “tight/irreversible”.

In the case of CCCCCCC(C)(C)c1cc(OC(=O)c2cc3cc4c5c(c3oc2=O)CCCN5CCC4)c2c(c1)OC(C)(C)[C@@H]1CCC(=O)C[C@@H]21 [Compound 7.1, (6aR,10aR)-6,6-Dimethyl-3-(2-methyloctan-2-yl)-9-oxo-6a,7,8,9,10,10a-hexahydro-6H-benzo[c]chromen-1-yl 11-oxo-2,3,6,7-tetrahydro-1H, 5H, 11H-pyrano[2,3-f]pyrido[3,2,1-ij]quinoline-10-carboxylate], the melting point is reported as 132 to 133 °C.

In the case of CCCCCCC(C)(C)c1cc(OC(=O)c2cc3ccc(OC)cc3oc2=O)c2c(c1)OC(C)(C)[C@@H]1CCC(=O)C[C@@H]21 [Compound 7.2, (6aR,10aR)-6,6-Dimethyl-3-(2-methyloctan-2-yl)-9-oxo-6a,7,8,9,10,10a-hexahydro-6H-benzo[c]chromen-1-yl 7-methoxy-2-oxo-2H-chromene-3-carboxylate], the melting point is reported as 122 to 123 °C.

CCCCCCC(C)(C)c1cc(OC(=O)C(C)(C)CNC(=O)c2cc3cc4c5c(c3oc2=O)CCCN5CCC4)c2c(c1)OC(C)(C)[C@@H]1CCC(=O)C[C@@H]21 [Compound 9.9, (6aR,10aR)-6,6-Dimethyl-3-(2-methyloctan-2-yl)-9-oxo-6a,7,8,9,10,10a-hexahydro-6H-benzo[c]chromen-1-yl 2,2-dimethyl-3-(11-oxo-2,3,6,7-tetrahydro-1H, 5H, 11H-pyrano[2,3-f]pyrido[3,2,1-ij]quinoline-10-carboxamido)propanoate] showed a melting point of 131 to 132 °C.

Compound CCCCCCC(C)(C)c1cc(OC(=O)C(C)(C)CCNC(=O)c2cc3cc4c5c(c3oc2=O)CCCN5CCC4)c2c(c1)OC(C)(C)[C@@H]1CCC(=O)C[C@@H]21 [Compound 9.10, (6aR,10aR)-6,6-Dimethyl-3-(2-methyloctan-2-yl)-9-oxo-6a,7,8,9,10,10a-hexahydro-6H-benzo[c]chromen-1-yl 2,2-dimethyl-4-(11-oxo-2,3,6,7-tetrahydro-1H, 5H, 11H-pyrano[2,3-f]pyrido[3,2,1-ij]quinoline-10-carboxamido)butanoate] has a melting point of 132 to 133 °C.
